Results: patent publication US6982353B2, “C2-disubstituted indan-1-ol compounds, their derivatives, processes for their preparation, and their use as pharmaceuticals” (Aventis Pharma Deutschland GmbH, priority 2001, dated 2006)

Legend:
[1] = tested on: female NMRI mice; test: Anorectic action: cumulative evaporated milk consumption after 24 h removal of feed; format: in vivo; conditions: dose 20 mg/kg (ip or po, route not specified)
Method: The anorectic action was tested on female NMRI mice. After removal of feed for 24 hours, the preparation to be tested was administered intraperitoneally (ip) or by gavage (po). The animals were housed singly and, with free access to drinking water, they were offered evaporated milk 30 minutes after administration of the preparation. The consumption of evaporated milk was determined and the general behavior of the animals was monitored every half an hour for 7 hours. The measured milk consumption was compared to that of vehicle-treated control animals.

melting point: 101 °C
SMILES: CS(=O)(=O)C1(F)Cc2cc(Cl)ccc2C1O (stereo not drawn) [Example 1, 5-Chloro-2-fluoro-2-methanesulfonylindan-1-ol]
Reduction in cumulative milk consumption as % of the control ([1]; compared with untreated control animals): 46% | cumulative milk consumption by treated animals ([1]; feed removed 24 h, milk offered 30 min after administration, monitored for 7 hours): 5/2.06 ml
